Assay results from patent publication US7713994B2 (Wyeth LLC, priority 2005, dated 2010).

Key:
cyclin B/CDK1 enzyme = biological target: T1, cyclin B/CDK1 enzyme (Homo sapiens, UniProt P06493); assay: CDK1 ELISA kinase assay (phospho-Rb ser 795 detection); format: biochemical; details: In Vitro Enzyme Assays, read-out: CDK1 IC50
T1 construct: purchased New England BioLabs; host or cells: Sf9 insect cells, recombinant baculovirus
In short: (§1)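 Inhibition was derived from A450 relative to control wells lacking compound, following an anti-phospho-Rb Ser795 sandwich of HRP detection. The reactions combined coated GST-Rb fragment, 200 μM ATP and baculovirus-expressed cyclin/CDK enzymes, incubated for 1 h at 30° C.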

cyclin E/CDK2 enzyme = biological target: T2, cyclin E/CDK2 enzyme (Homo sapiens, UniProt P24941); assay: CDK2 ELISA kinase assay (phospho-Rb ser 795 detection); format: biochemical; details: In Vitro Enzyme Assays, read-out: CDK2 IC50
T2 construct: made in house; host or cells: Sf9 insect cells, recombinant baculovirus
In short: as §1

HCT-116 = assay: Cytotoxicity assay (SRB), HCT-116; format: cell-based; details: Homo sapiens, HCT-116, 72 h, HCT116 cells, SRB, three days; read-out: In Vitro Cellular Activity IC50 HCT116
In short: (§2)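 BT474 (12000 cells/well) was treated for 6 days, whereas HCT-116 (4000), LoVo (6000) and MCF-7 (6000) were treated for 3 days, all in RPMI 1640 containing 5% FBS. Surviving-cell percentage came from SRB dye binding measured at 540 nm.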

cyclin D1/cdk 4 enzyme = biological target: T3, cyclin D1/cdk 4 enzyme (Homo sapiens, UniProt P11802); assay: CDK4 ELISA kinase assay (phospho-Rb ser 795 detection); format: biochemical; details: In Vitro Enzyme Assays, 200 μM ATP, read-out: CDK4 IC50
T3 construct: made in house; host or cells: Sf9 insect cells, recombinant baculovirus
In short: as §1

SK-UT-1B = assay: In Vitro Cellular Activity (Table III), SK-UT-1B; format: cell-based; details: Homo sapiens, Skut1B; SK-UT-1B cells
MCF-7 = assay: Cytotoxicity assay (SRB), MCF-7; format: cell-based; details: Homo sapiens, MCF7, 72 h, MCF-7 cells, SRB, three days; read-out: In Vitro Cellular Activity IC50 MCF-7
In short: as §2

LoVo = assay: Cytotoxicity assay (SRB), LoVo; format: cell-based; details: Homo sapiens, LoVo, 72 h, LoVo cells, SRB, three days; read-out: In Vitro Cellular Activity IC50 LOVO
In short: as §2

BT474 = assay: Cytotoxicity assay (SRB), BT474; format: cell-based; details: Homo sapiens, BT-474, 144 h, BT474 cells, SRB, 6 days; read-out: In Vitro Cellular Activity IC50 BT474
In short: as §2

T3 sequence (P11802 whole entry, species assumed): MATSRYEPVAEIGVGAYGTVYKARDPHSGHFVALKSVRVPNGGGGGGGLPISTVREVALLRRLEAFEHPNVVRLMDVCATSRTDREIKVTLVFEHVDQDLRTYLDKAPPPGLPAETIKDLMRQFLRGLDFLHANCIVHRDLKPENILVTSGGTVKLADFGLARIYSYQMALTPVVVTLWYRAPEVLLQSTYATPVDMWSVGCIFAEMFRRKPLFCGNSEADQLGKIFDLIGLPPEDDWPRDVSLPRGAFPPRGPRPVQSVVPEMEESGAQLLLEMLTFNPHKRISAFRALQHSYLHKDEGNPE
T3 sequence (P24385 whole entry partner, species assumed): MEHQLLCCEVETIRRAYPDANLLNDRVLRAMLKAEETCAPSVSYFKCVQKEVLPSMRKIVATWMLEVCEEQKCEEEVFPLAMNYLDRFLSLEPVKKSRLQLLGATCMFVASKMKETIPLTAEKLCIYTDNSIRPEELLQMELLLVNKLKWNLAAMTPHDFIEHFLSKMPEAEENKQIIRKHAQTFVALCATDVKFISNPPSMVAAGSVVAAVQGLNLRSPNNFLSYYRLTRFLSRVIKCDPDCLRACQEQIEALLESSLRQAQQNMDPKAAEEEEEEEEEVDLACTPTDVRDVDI
T1 sequence (P06493 whole entry): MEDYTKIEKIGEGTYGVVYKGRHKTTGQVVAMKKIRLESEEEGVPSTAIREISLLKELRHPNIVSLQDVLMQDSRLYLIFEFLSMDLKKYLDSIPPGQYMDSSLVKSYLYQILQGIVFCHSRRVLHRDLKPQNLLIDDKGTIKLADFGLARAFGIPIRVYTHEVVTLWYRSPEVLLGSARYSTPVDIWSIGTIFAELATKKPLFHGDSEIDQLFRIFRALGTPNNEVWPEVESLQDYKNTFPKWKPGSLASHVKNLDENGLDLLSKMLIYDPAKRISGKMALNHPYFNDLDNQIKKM
T1 sequence (P14635 whole entry partner): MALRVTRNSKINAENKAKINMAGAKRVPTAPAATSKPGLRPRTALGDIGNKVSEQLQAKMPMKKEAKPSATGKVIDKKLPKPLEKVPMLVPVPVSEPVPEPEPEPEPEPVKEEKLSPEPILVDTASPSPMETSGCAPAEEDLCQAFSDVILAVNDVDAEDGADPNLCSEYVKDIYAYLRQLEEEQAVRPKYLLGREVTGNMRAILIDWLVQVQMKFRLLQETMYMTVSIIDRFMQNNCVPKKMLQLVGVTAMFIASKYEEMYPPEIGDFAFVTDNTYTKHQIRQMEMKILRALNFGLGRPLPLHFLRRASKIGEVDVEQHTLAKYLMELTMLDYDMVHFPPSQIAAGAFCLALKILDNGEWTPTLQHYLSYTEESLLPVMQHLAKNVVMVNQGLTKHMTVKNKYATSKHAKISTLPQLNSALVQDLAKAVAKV

Work on `O=C1NC(=O)c2ccccc2/C1=C/Nc1ccc(CN2CCC(O)CC2)cc1` [Example 23, (4Z)-4-[({4-[(4-Hydroxypiperidin-1-yl)methyl]phenyl}amino)methylene]isoquinolin-1,3(2H,4H)-dione] yielded an IC50 (cyclin B/CDK1 enzyme) of over 26 µM, an IC50 (cyclin E/CDK2 enzyme) of 26 µM and an IC50 (HCT-116) of 10.5 µM. The IC50 (cyclin D1/cdk 4 enzyme) was 5.15 µM, the IC50 (SK-UT-1B) was 16.3 µM and the melting point was 224 to 225 °C. It also gave an IC50 (MCF-7) of 8.7 µM.

Work on `COC[C@H]1CCCN1Cc1ccc(N/C=C2\C(=O)NC(=O)c3ccc(Br)cc32)cc1` [Example 38] yielded an IC50 (cyclin B/CDK1 enzyme) of over 50 µM, an IC50 (cyclin E/CDK2 enzyme) of over 50 µM and an IC50 (HCT-116) of 7.3 µM. For the same compound, the IC50 (cyclin D1/cdk 4 enzyme) was 1.1 µM, the IC50 (LoVo) was 7.9 µM and the IC50 (SK-UT-1B) was 11 µM. The IC50 (BT474) was 2.8 µM, the melting point was 129 to 130 °C and the IC50 (MCF-7) was 3.7 µM.

Compound `O=C1NC(=O)c2ccccc2/C1=C/Nc1ccc(CCN2CCCC2)cc1` [Example 5, (4Z)-4-({[4-(2-Pyrrolidin-1-ylethyl)phenyl]amino}methylene)isoquinoline-1,3(2H,4H)-dione] has an IC50 (cyclin B/CDK1 enzyme) of over 28 µM, an IC50 (cyclin E/CDK2 enzyme) of over 28 µM and an IC50 (HCT-116) of 10.8 µM. The IC50 (cyclin D1/cdk 4 enzyme) was 10.2 µM, the IC50 (SK-UT-1B) was 10.2 µM and the melting point was 224 to 225 °C. It also gave an IC50 (MCF-7) of 8 µM.

In the case of `O=C1NC(=O)c2ccccc2/C1=C\c1ccc(O)cc1` [Example 11, (4E)-4-(4-hydroxybenzylidene)isoquinoline-1,3(2H,4H)-dione], the IC50 (cyclin B/CDK1 enzyme) is reported as over 37 µM, the IC50 (cyclin E/CDK2 enzyme) is reported as over 37 µM and the IC50 (HCT-116) is reported as 2.3 µM. It also gave an IC50 (cyclin D1/cdk 4 enzyme) of over 50 µM, an IC50 (LoVo) of 6.8 µM and an IC50 (SK-UT-1B) of over 36 µM. The IC50 (BT474) was over 50 µM, the melting point was 242 to 243 °C and the IC50 (MCF-7) was 18 µM.

Work on `O=C1NC(=O)c2ccc(Br)cc2/C1=C/Nc1ccc(CN2CCCCC2)cc1` [Example 24, (4Z)-6-Bromo-4-{[(4-piperidin-1-ylmethyl)phenyl]amino}methyleneisoquinoline-1,3(2H,4H)-dione] yielded an IC50 (cyclin B/CDK1 enzyme) of over 50 µM, an IC50 (HCT-116) of 5 µM and an IC50 (LoVo) of 6 µM. The IC50 (SK-UT-1B) was 7.8 µM, the IC50 (BT474) was 4.8 µM and the melting point was 222 to 225 °C. For the same compound, the IC50 (MCF-7) was 3.1 µM.

With `CN1CCN(c2ccc(N/C=C3\C(=O)NCc4ccccc43)cc2)CC1` [Example 2, (4Z)-4-({[4-(4-Methyl-1-piperazinyl)phenyl]amino}methylene)-1,4-dihydro-3(2H)-isoquinolinone] the IC50 (cyclin B/CDK1 enzyme) was over 29 µM, the IC50 (cyclin E/CDK2 enzyme) was over 29 µM and the IC50 (HCT-116) was 7.4 µM. It also gave an IC50 (cyclin D1/cdk 4 enzyme) of 12.1 µM, an IC50 (LoVo) of 7.8 µM and an IC50 (SK-UT-1B) of 4.3 µM. The IC50 (BT474) was 21.5 µM, the melting point was 186 to 187 °C (dec.) and the IC50 (MCF-7) was 6.7 µM.

With `O=C1NC(=O)c2ccccc2/C1=C/Nc1ccc(CN2CCCCC2)cc1` [Example 13, (4Z)-4-({[4-(Piperidin-1-ylmethyl)phenyl]amino}methylene)isoquinoline-1,3(2H,4H)-dione] the IC50 (cyclin B/CDK1 enzyme) was over 28 µM, the IC50 (HCT-116) was 8.6 µM and the IC50 (cyclin D1/cdk 4 enzyme) was 7.9 µM. The IC50 (LoVo) was 15 µM, the IC50 (SK-UT-1B) was 11.3 µM and the IC50 (BT474) was 27 µM. For the same compound, the melting point was 185 to 186 °C and the IC50 (MCF-7) was 7.3 µM.

Work on `O=C1NC(=O)c2ccccc2/C1=C/Nc1ccc(CN2CCCCCC2)cc1` [Example 26, (4Z)-4-({[4-(Azepan-1-ylmethyl)phenyl]amino}methylene)isoquinoline-1,3(2H,4H)-dione] yielded an IC50 (cyclin B/CDK1 enzyme) of over 27 µM, an IC50 (cyclin E/CDK2 enzyme) of over 27 µM and an IC50 (HCT-116) of 7.3 µM. The IC50 (cyclin D1/cdk 4 enzyme) was 4.3 µM, the IC50 (SK-UT-1B) was 6.1 µM and the melting point was 198 to 200 °C. It also gave an IC50 (MCF-7) of 8 µM.

In the case of `CN(C(=O)CN1CCCCC1)c1ccc(N/C=C2\C(=O)NC(=O)c3ccccc32)cc1` [Example 29, N-(4-{[(Z)-(1,3-Dioxo-2,3-dihydroisoquinolin-4(1H)-ylidene)methyl]amino}phenyl)-1,3(2H,4H)-dione N-Methyl-2-piperidin-1-ylacetamide], the IC50 (cyclin B/CDK1 enzyme) is reported as over 23 µM, the IC50 (cyclin E/CDK2 enzyme) is reported as over 23 µM and the IC50 (HCT-116) is reported as 21 µM. It also gave an IC50 (cyclin D1/cdk 4 enzyme) of 15 µM, an IC50 (LoVo) of 19 µM and an IC50 (SK-UT-1B) of 17 µM. It also gave an IC50 (BT474) of 21 µM, a melting point of 223 to 224 °C and an IC50 (MCF-7) of 12 µM.
